Assay results from US20250195482A1, “METHOD AND COMPOSITION FOR IMPROVING HEALTH OF HAIR FOLLICLES, SCALP OR HAIR OF MAMMALS” (NANJING NUTRABUILDING BIO-TECH CO., LTD., priority 2022, published 2025).

Assays:
Type in all cases: cell-based
[1] = test system: M. globosa; test: Growth inhibition of M. globosa (optical density); conditions: 1000 μM DHB, 600 nm, 48 h shaking at 30° C., mDixon medium; control 4.1
Experimental: (§1) Growth inhibition of M. globosa, M. restricta, Propionibacterium acnes, Staphylococcus aureus and Staphylococcus epidermidis was tested using 50-ml tubes with 10 ml of mDixon medium. Cultures were inoculated to an optical density (OD) of 0.2, the above microorganisms were loaded into each culture dish, and challenged with test material (control and DHB with different concentrations: 0.001 μM, 0.01 μM, 0.1 μM, 1 μm, 10 μM, 100 μM and 1000 μM). After 48 h of shaking at 30° C., the OD was measured by spectrophotometer and recorded.

[2] = test system: M. restricta; test: Growth inhibition of M. restricta (optical density); conditions: 1000 μM DHB, 600 nm, 48 h shaking at 30° C., mDixon medium; control 6.5
Experimental: as §1

[3] = test system: Propionibacterium acnes; test: Growth inhibition of Propionibacterium acnes (optical density); conditions: 1000 μM DHB, 530 nm, 48 h shaking at 30° C.; control 2.6
Experimental: as §1

[4] = test system: Staphylococcus aureus; test: Growth inhibition of Staphylococcus aureus (optical density); conditions: 1000 μM DHB, 530 nm, 48 h shaking at 30° C.; control 2.1
Experimental: as §1

[5] = test system: Staphylococcus epidermidis; test: Growth inhibition of Staphylococcus epidermidis (optical density); conditions: 1000 μM DHB, 530 nm, 48 h shaking at 30° C.; control 1.8
Experimental: as §1

COc1ccc2c(c1OC)CN1CCc3cc4c(cc3C1=C2)OCO4 [DHB, Dihydroberberine]
optical density of M. globosa [1]: 0.2
optical density of M. restricta [2]: 1.1
optical density of Propionibacterium acnes [3]: 0.9
optical density of Staphylococcus aureus [4]: 0.3
optical density of Staphylococcus epidermidis [5]: 0.3
